# Results taken from US9284283B2, “Macrocyclic compounds for modulating IL-17” (ENSEMBLE THERAPEUTICS CORPORATION, priority 2012, dated 2016).
# Assays:
# IL17A = target: T1, IL17A (Homo sapiens, UniProt Q16552); assay: Surface Plasmon Resonance (SPR) analysis of compound interactions with IL17A; conditions: SPR binding to IL17A
# T1 sequence (Q16552 24-155): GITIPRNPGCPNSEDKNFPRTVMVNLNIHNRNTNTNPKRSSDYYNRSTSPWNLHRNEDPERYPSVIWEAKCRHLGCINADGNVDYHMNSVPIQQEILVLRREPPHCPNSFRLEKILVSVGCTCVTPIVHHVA
# Method in brief: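 His-tagged IL17A captured on a Ni-NTA chip; five 2- or 3-fold compound dilutions from 50 μM injected for 180 s, 120 s dissociation, in HEPES-saline buffer with 0.5% DMSO. Baseline-subtracted sensorgrams fitted 1:1 for ka, kd and KD; Kd also derived from binding extent per concentration.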
# [1] = test system: IL-17-induced GROα secretion from HT-29 cells; assay: HT-29 cellular assay (IL-17-induced GROα secretion); assay type: cell-based; conditions: Homo sapiens
# Procedure: To test the ability of a compound of the invention to neutralize or antagonize IL-17 bioactivity, the following cell-based assay was used. IL-17 can stimulate epithelial cells and other cells to secrete GROα. The ability of a compound of the invention to neutralize IL-17-induced GROα secretion from the human colorectal adenocarcinoma epithelial cell line HT-29 is tested in this assay.
# HT-29 cells (human colorectal adenocarcinoma epithelial cells, ATCC #HTB-38), were maintained in culture/assay medium in tissue culture-treated flasks using standard techniques. HT-29 cells were grown in tissue culture flasks until they were 50-80% confluent on the day before the assay. The day before the assay, the cells were detached from the culture flasks with trypsin+EDTA. The trypsin was inactivated with complete assay medium. HT-29 cells were then centrifuged at 500×g for 5 minutes at room temperature. The cell pellet was then re-suspended in Defined Keratinocyte SFM (Invitrogen #10766019)+10% FCS and 50,000 HT-29 cells (in 100 μl) were added to each treatment well of the 96-well plates. The 96-well plates were placed in a tissue culture incubator (37° C., 5% CO2) overnight. The next day, the media was removed from the cells and the cells were washed twice with Defined Keratinocyte SFM. In a separate 96-well plate, compounds to be tested were serially diluted in Defined Keratinocyte SFM and run in triplicate in 100 μL total volume. To these compound samples were then added 100 μL of human IL-17 at a concentration of 20 ng/mL in Defined Keratinocyte SFM for serum-free assays. 150 μL of the compound/IL-17 mixture was then added to the cells from which the media has previously been removed. The cells were grown for 48 hours in Defined Keratinocyte SFM in a tissue culture incubator (37° C., 5% CO2).
# At the end of the incubation, the plates are centrifuged (500×g for 5 minutes at room temperature), and the cell culture media is transferred to polypropylene 96-well plates. The supernatant was used neat in the ELISA. GROα levels are measured with a GROα sandwich ELISA (R+D Systems DuoSet #DY275E), as per the manufacturer's instructions. The ELISA plates were previously coated with mAb 275 (R+D Systems) at 4 μg/mL. GROα is detected using biotinylated goat anti-human GROα (R+D Systems BAF275) at 200 ng/mL using TMB as a substrate. At the end of the ELISA reactions, plates are read at 450 nm on a microplate reader and compared to a standard calibration curve.
# [2] = target: T2, recombinant human IL17a (binding to its receptor IL17R) (Homo sapiens, UniProt Q16552); assay: IL-17 competition ELISA I (IL17a coated, IL17R/Fc binding)
# T2 construct: purchased R&D Systems 317-ILB (IL17a); 177-IR (IL17R/Fc)
# T2 sequence (Q16552 20-155 limits assumed): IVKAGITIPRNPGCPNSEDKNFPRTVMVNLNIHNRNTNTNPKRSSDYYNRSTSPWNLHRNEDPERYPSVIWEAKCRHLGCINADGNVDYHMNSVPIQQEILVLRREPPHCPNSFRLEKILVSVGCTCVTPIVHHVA
# Method in brief: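 Plates coated with 20 nM recombinant human IL17a received compound dilutions and 12 nM IL17R/Fc (final) for 30 min at room temperature. Bound receptor was detected with HRP anti-human Fc and TMB, read at 450 nm. IC50 came from a 4-parameter logistic fit between no-competitor and blank controls.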
# [3] = test system: IL-17A induced secretion of IL-6 in primary human RASF cells; assay: Inhibition of IL17A induced secretion of IL6 in human rheumatoid arthritis synovial fibroblast (RASF) cells; assay type: cell-based; conditions: Homo sapiens, Fibroblast
# Method in brief: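 Primary RASF cells (passage 2-8) stimulated 20 h at 37 °C with rhIL-17A (30 ng/mL) pre-incubated 1 h with compound (final 0.03-25 μM, 0.25% DMSO). Supernatant IL-6 measured by ELISA, normalized to WST1 viability; triplicates.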
# [4] = target: T3, biotinylated human IL-17 (binding to IL17R/Fc) (Homo sapiens, UniProt Q16552); assay: IL-17 competition ELISA II (captured IL17R/Fc, biotinylated IL-17)
# T3 construct: purchased R&D Systems 317-ILB (IL-17, biotinylated); 177-IR (IL17R/Fc)
# T3 sequence (Q16552 20-155 limits assumed): T2 sequence (Q16552 20-155 limits assumed)
# Method in brief: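 Competition read-out: absorbance at 450 nm after streptavidin-HRP/TMB detection, fitted to a 4-parameter logistic model bounded by no-competitor and blank wells to give IC50. Compound was serially diluted 5-fold from 1 μM alongside 20 nM (stock) biotinylated IL-17 on IL17R/Fc (10 nM) captured via goat anti-human IgG, 30 min at room temperature.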
# DNFB-treated BALB/c mice = assay: Murine model of delayed hypersensitivity (DNFB-induced ear edema); assay type: in vivo, mouse; conditions: po; for Reduction in edema (%): ear weight 24 h after DNFB challenge; for IFNγ Reduction (%) / IL6 Reduction (%) / CXCL1 Reduction (%): plasma
# Procedure: We used a murine model of fluorodinitrobenzene (DNFB)-induced ear edema to test the anti-inflammatory activity of both orally dosed and intraperitoneally dosed exemplary compounds of the invention. BALB/c mice (Harlan Sprague-Dawley, Inc., male, 6-8 weeks old) were topically treated on their shaved abdomen with 30 μL of 0.5% 1-fluoro-2,4-dinitrobenzene (DNFB) (4:1 acetone:olive oil) once on Day 0 and once on Day 1.
# For oral dosing (“PO”), exemplary compounds of the invention were either suspended at 3 mg/mL in 20% Cremophor EL (Sigma) (20:80; Cremophor:water) or dissolved at 1 mg/mL or 3 mg/mL in D-α-tocopherol polyethylene glycol 1000 succinate (TPGS; Sigma)/PEG-400/water (20:60:20). For intraperitoneal dosing (“IP”), exemplary compounds of the invention were dissolved in DMSO at a concentration of 5 mg/mL. On day 7, the test compound was administered (PO at either 10 mg/kg or 30 mg/kg; IP at 1, 3, or 10 mg/kg) to DNFB-treated mice. Commercially available anti-mouse IL-17A (BioLegend) administered intraperitoneally at 5 mg/kg in PBS was used as a positive control. Thirty minutes later, 20 μL of 0.2% DNFB was applied to the right ear of animals and vehicle ([…]:olive oil) was applied to the left ear. One and four hours after DNFB challenge, a subset of mice was exsanguinated and plasma prepared from the blood. Twenty-four hours after challenge, the remaining mice were euthanized, and their ears were removed and weighed to determine the amount of edema. Plasma was assayed for interleukin-6, TNF-α, CXCL1, and interferon-γ concentrations using commercially-available assays.
Structure (SMILES),Kd (IL17A) [nM],IC50 [2] [nM],IC50 [3] [nM],further results
COC(=O)[C@H]1CCCCNC(=O)CCCNC(=O)[C@@H](Cc2ccc(NC(=O)[C@H](Cc3ccccc3F)NC(=O)Cc3ccccc3)cc2)NC(=O)CC2(CCCC2)CC(=O)N1 [Compound 107],100 to 1000,–,–,IC50 [1]: > 10000 nM
COC(=O)[C@@H]1CCCCNC(=O)CNC(=O)[C@@H](Cc2ccc(NC(=O)[C@H](Cc3ccccc3F)NC(=O)Cc3ccccc3)cc2)NC(=O)CC2(CCCC2)CC(=O)N1 [Compound 108],< 100,–,–,IC50 [1]: 1000 to 10000 nM
COC(=O)[C@@H]1CCCCNC(=O)CCNC(=O)[C@@H](Cc2ccc(NC(=O)[C@H](Cc3ccccc3F)NC(=O)Cc3ccccc3)cc2)NC(=O)CC2(CCCC2)CC(=O)N1 [Compound 109],100 to 1000,–,–,IC50 [1]: 1000 to 10000 nM
COC(=O)[C@@H]1CCCCNC(=O)CCCNC(=O)[C@@H](Cc2ccc(NC(=O)[C@H](Cc3ccccc3Br)NC(=O)Cc3ccccc3)cc2)NC(=O)CC2(CCCC2)CC(=O)N1 [Compound 120],–,–,–,IC50 [1]: 1000 to 10000 nM
CC[C@H](C)[C@H](NC(=O)Cc1ccccc1)C(=O)Nc1ccc(C[C@H]2NC(=O)CC3(CCCC3)CC(=O)N[C@H](C(=O)OC)CCCCNC(=O)CCCNC2=O)cc1 [Compound 122],1000 to 10000,1000 to 10000,1000 to 10000,–
CC(=O)N[C@@H](Cc1ccccc1Cl)C(=O)Nc1ccc(C[C@H]2NC(=O)CC3(CCCC3)CC(=O)NCCCCCNC(=O)CNC2=O)cc1 [Compound 153],< 100,< 100,1000 to 10000,–
O=C1CNC(=O)[C@@H](Cc2ccc(NC(=O)[C@H](Cc3ccccc3Cl)NC(=O)Cc3ccccc3)cc2)NC(=O)CC2(CCCC2)CC(=O)N(CCO)CCCCCN1 [Compound 168],< 100,–,1000 to 10000,–
CC(=O)N[C@@H](Cc1ccccc1Cl)C(=O)Nc1ccc(C[C@H]2NC(=O)CC3(CCCC3)CC(=O)N(CCO)CCCCCNC(=O)CNC2=O)cc1 [Compound 169],< 100,100 to 1000,> 10000,–
O=C1CNC(=O)[C@@H](Cc2ccc(NC(=O)[C@@H](NC(=O)Cc3ccc(O)cc3)C3CCCCC3)cc2)NC(=O)CC2(CCCC2)CC(=O)NCCCCCN1 [Compound 192],< 100,< 100,1000 to 10000,–
O=C1CNC(=O)[C@@H](Cc2ccc(NC(=O)[C@H](Cc3ccccc3Cl)NC(=O)c3ccccn3)cc2)NC(=O)CC2(CCCC2)CC(=O)NCCCCCN1 [Compound 195],100 to 1000,100 to 1000,–,IC50 [4]: < 100 nM
O=C1CNC(=O)[C@@H](Cc2ccc(NC(=O)[C@H](Cc3ccccc3Cl)NC(=O)c3cncnc3)cc2)NC(=O)CC2(CCCC2)CC(=O)NCCCCCN1 [Compound 201],< 100,100 to 1000,> 10000,–
CC(C)(C)C(=O)N[C@@H](Cc1ccccc1Cl)C(=O)Nc1ccc(C[C@H]2NC(=O)CC3(CCCC3)CC(=O)NCCCCCNC(=O)CNC2=O)cc1 [Compound 206],< 100,< 100,1000 to 10000,–
O=C1CNC(=O)[C@@H](Cc2ccc(NC(=O)[C@H](Cc3ccccc3Cl)NC(=O)Cc3ccccc3)cc2)NC(=O)CC2(CCCC2)CC(=O)NCCOCCN1 [Compound 209],< 100,< 100,1000 to 10000,–
O=C1CNC(=O)[C@@H](Cc2ccc(NC(=O)[C@H](Cc3ccccc3Br)NC(=O)Cc3ccc(O)cc3)cc2)NC(=O)CC2(CCCC2)CC(=O)NCCCCCN1 [Compound 211],< 100,< 100,1000 to 10000,–
O=C1CNC(=O)[C@@H](Cc2ccc(NC(=O)[C@H](Cc3ccccc3Cl)NC(=O)Cc3ccccc3O)cc2)NC(=O)CC2(CCCC2)CC(=O)NCCCCCN1 [Compound 216],< 100,< 100,1000 to 10000,–
O=C1CNC(=O)[C@@H](Cc2ccc(NC(=O)[C@H](Cc3ccccc3Cl)NC(=O)c3ccc(F)cc3)cc2)NC(=O)CC2(CCCC2)CC(=O)NCCCCCN1 [Compound 227],< 100,100 to 1000,1000 to 10000,–
COC(=O)N[C@@H](Cc1ccccc1Cl)C(=O)Nc1ccc(C[C@H]2NC(=O)CC3(CCCC3)CC(=O)NCCOCCOCCNC2=O)cc1 [Compound 465],–,–,–,IC50 [4]: < 100 nM; Reduction in edema (%) (DNFB-treated BALB/c mice; 30 mg/kg): 23.5%; IFNγ Reduction (%) (DNFB-treated BALB/c mice; 30 mg/kg): 47.4%; IL6 Reduction (%) (DNFB-treated BALB/c mice; 30 mg/kg): 42.5%
O=C1CC2(CCCC2)CC(=O)N[C@H](Cc2ccc(NC(=O)[C@H](Cc3ccccc3Cl)NC(=O)C(F)(F)c3ccccc3)cc2)C(=O)NCCOCCOCCN1 [Compound 475],–,–,100 to 1000,IC50 [4]: < 100 nM; Reduction in edema (%) (DNFB-treated BALB/c mice; 10 mg/kg): 19.2%; CXCL1 Reduction (%) (DNFB-treated BALB/c mice; 10 mg/kg): 61.4%; IFNγ Reduction (%) (DNFB-treated BALB/c mice; 10 mg/kg): 11.3%; IL6 Reduction (%) (DNFB-treated BALB/c mice; 10 mg/kg): 29.7%; Reduction in edema (%) (DNFB-treated BALB/c mice; 30 mg/kg): 49.5%; CXCL1 Reduction (%) (DNFB-treated BALB/c mice; 30 mg/kg): 63.0%; IFNγ Reduction (%) (DNFB-treated BALB/c mice; 30 mg/kg): 45.0%; IL6 Reduction (%) (DNFB-treated BALB/c mice; 30 mg/kg): 51.9%
